Reference: US20220207902A1, “SYSTEM AND METHOD FOR AUTOMATICALLY DISCOVERING, CHARACTERIZING, CLASSIFYING AND SEMI-AUTOMATICALLY LABELING ANIMAL BEHAVIOR AND QUANTITATIVE PHENOTYPING OF BEHAVIORS IN ANIMALS” (President and Fellows of Harvard College, priority 2012, published 2022)
“Also recorded” adds a separate entry of the source.

Key:
[1] = tested on: mice; assay: conventional two-compartment behavioral choice assay (odor-soaked filter paper); format: in vivo; conditions: odors soaked into filter papers placed in the small compartment of a cage divided by a parafilm curtain; FIGS. 4A and 4B
Source text: (§1) FIGS. 4A-4E depict assessment of odor-driven innate behaviors in two and three dimensions. FIGS. 4A and B depict a conventional two-compartment behavioral choice assay. FIG. 4C, left, depicts a new behavioral arena. FIG. 4C, right, depicts a chart generated through use of custom-written Matlab code to track animal trajectories.
(§2) FIGS. 4A-4E depict the assessment of odor-driven innate behaviors in two and three dimensions. […] Odors are soaked into filter papers, which are placed in the small compartment of a cage divided by a parafilm curtain. This assay suffers from incomplete control of gas-phase odorant concentration, poorly defined spatial odor gradients and experimental variability due to the physical interaction of the animal with the odor source. The present inventors have therefore developed a new behavioral arena (FIG. 4C, left), in which odors are delivered to each of 4 corners in gas phase via high-performance computer-controlled Teflon valves.

[2] = tested on: mice; assay: odor quadrant arena, odors delivered in gas phase to one of four corners, animal tracked by 2D tracking or depth camera; format: in vivo
Source text: as §1, §2
Odors are delivered to one of four quadrants via computer-controlled olfactometers, which can deliver precisely timed pulses or square waves of odorants at defined concentrations. […]

SMILES	innate behavioral response to odor (attraction or avoidance) [1]	posture (aspect ratio versus height) by depth camera ([2]; depth camera, compared with control conditions (stretched and low to the ground), FIG. 4E)	qualitative and quantitative avoidance behavior ([2]; odor delivered in gas phase in the upper right corner, FIG. 4D)
Cc1cnc(C)cn1 [2,5-DMP]	avoidance	–	–
CCCCCC(C)=O [2-heptanone]	avoidance	–	–
CC1=NC(C)SC1C (stereo not shown) [TMT]	avoidance	become compressed (from the perspective of the overhead camera) and elevate their noses	avoidance behaviors that are extraordinarily robust and well controlled; also recorded: avoidance behavior
CCCC(=O)O [butyric acid]	avoidance	–	–
C=CCc1ccc(O)c(OC)c1 [eugenol]	robust innate behavioral attraction	–	–
